{"source": "paper PMC9798004", "about": "(Frontiers in Psychiatry, 2022)", "key": {"NPBWR2": {"molecular_target": "T1, NPBWR2 (Homo sapiens, UniProt P48146)", "T1 construct": "purchased Eurofins DiscoverX (PathHunter gpcrMAX)", "assay": "PathHunter β-arrestin assay", "assay_type": "cell-based", "conditions": "screen, control agonist; CHO, 37C, 2HR"}, "NPBWR1": {"molecular_target": "T2, NPBWR1 (Homo sapiens, UniProt P48145)", "T2 construct": "purchased Eurofins DiscoverX (PathHunter gpcrMAX)", "T2 sequence (P48145 1-328)": "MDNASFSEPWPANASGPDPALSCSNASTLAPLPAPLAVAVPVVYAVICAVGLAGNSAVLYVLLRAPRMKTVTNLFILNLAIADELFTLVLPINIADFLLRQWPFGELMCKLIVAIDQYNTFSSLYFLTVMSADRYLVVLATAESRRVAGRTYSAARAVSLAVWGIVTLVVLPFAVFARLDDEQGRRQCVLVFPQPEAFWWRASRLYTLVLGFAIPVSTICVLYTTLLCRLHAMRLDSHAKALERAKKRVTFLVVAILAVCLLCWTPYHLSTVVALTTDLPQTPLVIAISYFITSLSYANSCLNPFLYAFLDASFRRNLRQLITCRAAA", "assay": "PathHunter β-arrestin assay", "assay_type": "cell-based", "conditions": "screen, control agonist; CHO, RT, 2HR"}, "GRPR": {"molecular_target": "T3, GRPR (Homo sapiens, UniProt P30550)", "T3 construct": "purchased Eurofins DiscoverX (PathHunter gpcrMAX)", "assay": "PathHunter β-arrestin assay", "assay_type": "cell-based", "conditions": "control agonist", "method": "(§1) Follow up experiments were prioritized based on the difference between S/N and CoV. Targets with a >5-fold difference between S/N and CoV were investigated for their potential contribution to the AMB-FUBINACA toxidrome with 10-point concentration-response curves generated in technical replicate (range 1.5–30 μM) using the EC80 of the relevant agonist, where applicable in antagonist mode. Simultaneous agonist and antagonist curves were run in parallel to ensure reliability of the assay (see Supplementary Table 2), with both RC50 and signal to background aligning with historical averages, and Z' >0.5. RC50 was estimated using a four-parameter fit (CBIS Data Analysis Suite, ChemInnovation, San Diego, CA) on normalized data."}, "GLP2R": {"molecular_target": "T4, GLP2R (Homo sapiens, UniProt O95838)", "T4 sequence (O95838 1-553)": "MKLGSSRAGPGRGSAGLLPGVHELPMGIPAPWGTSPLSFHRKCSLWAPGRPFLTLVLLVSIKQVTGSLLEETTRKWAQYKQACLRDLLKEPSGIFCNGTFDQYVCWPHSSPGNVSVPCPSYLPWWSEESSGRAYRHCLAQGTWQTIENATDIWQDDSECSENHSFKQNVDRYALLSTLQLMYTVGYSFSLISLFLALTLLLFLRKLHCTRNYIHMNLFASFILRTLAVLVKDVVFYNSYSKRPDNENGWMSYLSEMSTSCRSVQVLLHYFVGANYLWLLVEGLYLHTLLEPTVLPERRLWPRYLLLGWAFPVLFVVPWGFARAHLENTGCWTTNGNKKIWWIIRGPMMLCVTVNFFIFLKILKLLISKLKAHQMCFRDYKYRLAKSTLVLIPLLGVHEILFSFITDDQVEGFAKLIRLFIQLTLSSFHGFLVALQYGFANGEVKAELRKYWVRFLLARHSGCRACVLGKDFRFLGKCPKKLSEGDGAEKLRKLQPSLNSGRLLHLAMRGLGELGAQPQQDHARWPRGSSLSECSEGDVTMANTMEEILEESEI", "assay": "PathHunter β-arrestin assay", "assay_type": "cell-based", "conditions": "control agonist", "method": "as §1"}, "MRGPRX2": {"molecular_target": "T5, MRGPRX2 (Homo sapiens, UniProt Q96LB1)", "T5 sequence (Q96LB1 1-330)": "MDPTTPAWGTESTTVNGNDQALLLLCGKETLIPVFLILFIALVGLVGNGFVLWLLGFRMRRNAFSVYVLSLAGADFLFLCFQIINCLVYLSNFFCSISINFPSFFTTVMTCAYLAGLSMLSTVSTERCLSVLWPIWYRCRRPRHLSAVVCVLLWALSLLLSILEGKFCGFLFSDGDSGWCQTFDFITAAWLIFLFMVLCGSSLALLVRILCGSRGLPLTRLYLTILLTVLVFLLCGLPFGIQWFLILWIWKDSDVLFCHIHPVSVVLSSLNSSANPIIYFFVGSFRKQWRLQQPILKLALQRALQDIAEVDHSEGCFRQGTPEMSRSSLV", "assay": "PathHunter β-arrestin assay", "assay_type": "cell-based", "conditions": "control agonist", "method": "as §1"}, "OXTR": {"molecular_target": "OXTR (Homo sapiens, UniProt P30559)", "sequence (P30559 whole entry)": "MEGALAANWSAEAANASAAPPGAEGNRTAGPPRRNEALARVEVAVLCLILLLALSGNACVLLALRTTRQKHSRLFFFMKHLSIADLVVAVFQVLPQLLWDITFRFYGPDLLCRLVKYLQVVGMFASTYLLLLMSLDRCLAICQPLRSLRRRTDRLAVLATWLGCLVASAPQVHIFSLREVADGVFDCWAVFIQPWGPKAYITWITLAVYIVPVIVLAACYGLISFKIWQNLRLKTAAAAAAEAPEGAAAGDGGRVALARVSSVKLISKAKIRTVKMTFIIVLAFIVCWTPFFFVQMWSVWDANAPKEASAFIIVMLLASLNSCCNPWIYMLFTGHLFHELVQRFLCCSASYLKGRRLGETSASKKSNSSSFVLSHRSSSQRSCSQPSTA", "assay": "PathHunter β-arrestin assay", "assay_type": "cell-based", "conditions": "follow-up assays, control antagonist"}, "MRGPRX1": {"molecular_target": "T6, MRGPRX1 (Homo sapiens, UniProt Q96LB2)", "T6 construct": "purchased Eurofins DiscoverX (PathHunter gpcrMAX)", "assay": "PathHunter β-arrestin assay", "assay_type": "cell-based", "conditions": "screen, control agonist; CHO, 37C, 2HR"}, "UTR2": {"molecular_target": "UTR2 (Homo sapiens, UniProt Q9UKP6)", "sequence (Q9UKP6 whole entry)": "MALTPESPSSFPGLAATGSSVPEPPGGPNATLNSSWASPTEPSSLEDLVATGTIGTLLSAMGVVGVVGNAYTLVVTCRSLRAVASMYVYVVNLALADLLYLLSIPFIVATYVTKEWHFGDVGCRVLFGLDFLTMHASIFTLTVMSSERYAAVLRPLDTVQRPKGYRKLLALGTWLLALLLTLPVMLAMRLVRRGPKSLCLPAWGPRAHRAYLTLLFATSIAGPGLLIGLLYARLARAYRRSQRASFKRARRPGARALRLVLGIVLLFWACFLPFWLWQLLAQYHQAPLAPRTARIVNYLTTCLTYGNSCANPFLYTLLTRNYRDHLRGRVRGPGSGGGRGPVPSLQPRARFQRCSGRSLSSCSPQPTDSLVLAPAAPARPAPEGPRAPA", "assay": "PathHunter β-arrestin assay", "assay_type": "cell-based", "conditions": "follow-up assays, control antagonist"}, "HTR1F": {"molecular_target": "T7, HTR1F (Homo sapiens, UniProt P30939)", "T7 construct": "purchased Eurofins DiscoverX (PathHunter gpcrMAX)", "assay": "PathHunter β-arrestin assay", "assay_type": "cell-based", "conditions": "screen, control agonist; U20S, 37C, 2HR"}, "HTR5A": {"molecular_target": "T8, HTR5A (Homo sapiens, UniProt P47898)", "T8 construct": "purchased Eurofins DiscoverX (PathHunter gpcrMAX)", "assay": "PathHunter β-arrestin assay", "assay_type": "cell-based", "conditions": "screen, control agonist; U20S, 37C, 2HR"}, "HTR1A": {"molecular_target": "T9, HTR1A (Homo sapiens, UniProt P08908)", "T9 construct": "purchased Eurofins DiscoverX (PathHunter gpcrMAX)", "assay": "PathHunter β-arrestin assay", "assay_type": "cell-based", "conditions": "screen, control agonist; CHO, 37C, 2HR"}, "HTR2A": {"molecular_target": "T10, HTR2A (Homo sapiens, UniProt P28223)", "T10 construct": "purchased Eurofins DiscoverX (PathHunter gpcrMAX)", "assay": "PathHunter β-arrestin assay", "assay_type": "cell-based", "conditions": "screen, control agonist; U20S, 37C, 2HR"}, "HTR1E": {"molecular_target": "T11, HTR1E (Homo sapiens, UniProt P28566)", "T11 construct": "purchased Eurofins DiscoverX (PathHunter gpcrMAX)", "assay": "PathHunter β-arrestin assay", "assay_type": "cell-based", "conditions": "screen, control agonist; U20S, 37C, 2HR"}, "HTR1B": {"molecular_target": "T12, HTR1B (Homo sapiens, UniProt P28222)", "T12 construct": "purchased Eurofins DiscoverX (PathHunter gpcrMAX)", "assay": "PathHunter β-arrestin assay", "assay_type": "cell-based", "conditions": "screen, control agonist; U20S, 37C, 2HR"}, "HRH2": {"molecular_target": "HRH2 (Homo sapiens, UniProt P25021)", "sequence (P25021 whole entry)": "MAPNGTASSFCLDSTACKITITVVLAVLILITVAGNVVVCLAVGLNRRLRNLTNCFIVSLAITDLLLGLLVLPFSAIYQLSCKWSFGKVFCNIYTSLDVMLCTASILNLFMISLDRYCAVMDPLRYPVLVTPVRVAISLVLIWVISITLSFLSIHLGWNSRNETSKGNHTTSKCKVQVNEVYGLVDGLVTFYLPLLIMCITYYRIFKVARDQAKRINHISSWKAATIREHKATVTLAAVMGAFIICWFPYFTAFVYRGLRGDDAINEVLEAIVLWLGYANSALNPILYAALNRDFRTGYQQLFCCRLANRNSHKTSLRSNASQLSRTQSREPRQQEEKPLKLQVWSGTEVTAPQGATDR", "assay": "PathHunter β-arrestin assay", "assay_type": "cell-based", "conditions": "control agonist"}, "HRH4": {"molecular_target": "HRH4 (Homo sapiens, UniProt Q9H3N8)", "sequence (Q9H3N8 whole entry)": "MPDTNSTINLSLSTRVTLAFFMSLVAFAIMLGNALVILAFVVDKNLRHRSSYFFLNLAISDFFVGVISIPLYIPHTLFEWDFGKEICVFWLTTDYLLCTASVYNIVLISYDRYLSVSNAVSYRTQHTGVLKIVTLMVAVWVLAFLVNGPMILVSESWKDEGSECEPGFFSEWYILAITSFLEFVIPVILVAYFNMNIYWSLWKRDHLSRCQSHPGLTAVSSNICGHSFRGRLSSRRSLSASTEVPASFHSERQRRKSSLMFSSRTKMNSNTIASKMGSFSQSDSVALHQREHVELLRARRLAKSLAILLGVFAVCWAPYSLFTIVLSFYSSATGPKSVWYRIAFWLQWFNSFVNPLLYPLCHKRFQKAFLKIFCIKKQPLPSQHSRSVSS", "conditions": "screen, control agonist; U20S, 37C, 4HR"}, "[1]": {"conditions": "follow-up concentration-response assays"}}, "note": "No end group written: not given here.", "data": [{"molecule": "Neuropeptide W23 (WYKHVASPRYHTVGRAAGLLMGL; Neuropeptide W-23; UniProt Q8N729 33-55, looked up) [control agonist]", "values": [{"measurement": "EC80", "setting": "NPBWR2", "result": 4.04, "unit": "nM"}, {"measurement": "EC80", "setting": "NPBWR1", "result": 8.1, "unit": "nM"}]}, {"molecule": "GRP: control agonist for GRPR (VPLPAGGGTVLTKMYPRGNHWAVGHLM; not fully specified (C-terminus); UniProt P07492 24-50, looked up)", "values": [{"measurement": "EC80", "setting": "GRPR; [1]", "result": 1.95, "unit": "nM"}, {"measurement": "EC80", "setting": "GRPR; screen, U20S, 37C, 2HR", "result": 5.85, "unit": "nM"}]}, {"molecule": "GLP II (1-33)", "values": [{"measurement": "EC80", "setting": "GLP2R; [1]", "result": 2.96, "unit": "nM"}, {"measurement": "EC80", "setting": "GLP2R; screen, CHO, 37C, 2HR", "result": 8.88, "unit": "nM"}]}, {"molecule": "Cortistatin 14 (PCKNFFWKTFSSCK; ends and bridges not checked; cysteine pairing not given here; UniProt Q62949 99-112, looked up) [control agonist]", "values": [{"measurement": "EC80", "setting": "MRGPRX2; [1]", "result": 737.5, "unit": "nM"}, {"measurement": "EC80", "setting": "MRGPRX2; screen, CHO, 37C, 2HR", "result": 738, "unit": "nM"}]}, {"molecule": "Cc1ccccc1N1CCN(S(=O)(=O)C[C@]23CC[C@H](C[C@@H]2NC(=O)[C@@H](N)CCS(C)(=O)=O)C3(C)C)CC1", "note": "[L-368,899]", "values": [{"measurement": "IC50", "setting": "OXTR", "result": 7.39, "unit": "nM"}]}, {"molecule": "BAM(8-22)", "values": [{"measurement": "EC80", "setting": "MRGPRX1", "result": 8580, "unit": "nM"}]}, {"molecule": "COc1cc(Br)c(S(=O)(=O)Nc2ccc(Cl)c(O[C@@H]3CCN(C)C3)c2)cc1OC", "note": "[SB 657510]", "values": [{"measurement": "IC50", "setting": "UTR2", "result": 122, "unit": "nM"}]}, {"molecule": "NCCc1c[nH]c2ccc(O)cc12", "note": "[Serotonin / 5-HT, Serotonin]", "values": [{"measurement": "EC80", "setting": "HTR1F", "result": 127, "unit": "nM"}, {"measurement": "EC80", "setting": "HTR5A", "result": 26.4, "unit": "nM"}, {"measurement": "EC80", "setting": "HTR1A", "result": 377, "unit": "nM"}, {"measurement": "EC80", "setting": "HTR2A", "result": 171, "unit": "nM"}, {"measurement": "EC80", "setting": "HTR1E", "result": 21.6, "unit": "nM"}, {"measurement": "EC80", "setting": "HTR1B", "result": 173, "unit": "nM"}]}, {"molecule": "NCCc1c[nH]cn1", "note": "[Histamine]", "values": [{"measurement": "EC80", "setting": "HRH2; [1]", "result": 10722, "unit": "nM"}, {"measurement": "EC80", "setting": "HRH2; screen, CHO, RT, 2HR", "result": 10700, "unit": "nM"}, {"measurement": "EC80", "setting": "HRH4", "result": 102, "unit": "nM"}]}]}
